Experimental data as given in US11008345B2, “Boron-containing small molecules” (Anacor Pharmaceuticals, Inc., priority 2010, dated 2021).
Counter-ions that a name gives are not always drawn. Like-named read-outs stand apart in the source and are kept apart here.

Tests used:
[1] = system: M. tuberculosis strain Erdman; assay type: in vivo; settings: day 24, C57BL/6 GKO mice
[2] = system: M. tuberculosis strain Erdman; assay type: in vivo; settings: C57BL/6 GKO mice; for log 10 CFU for lungs: day 22, lungs; for log 10 CFU for spleens: day 22, spleens

## CO[C@H]1/C=C/O[C@@]2(C)Oc3c(C)c(O)c4c(O)c(c(/C=N/N5CCN(C)CC5)c(O)c4c3C2=O)NC(=O)/C(C)=C\C=C\[C@H](C)[C@H](O)[C@@H](C)[C@@H](O)[C@@H](C)[C@H](OC(C)=O)[C@@H]1C [rifampicin, reference compound]
[1]; 10 mg/kg QD PO
  log 10 CFU/lung: 6.16 (0.10) log 10 CFU/lung

## CCOc1ccc(F)c2c1B(O)OC2CN.Cl (stereo not shown) [C, 3-Aminomethyl-7-ethoxy-4-fluoro-3H-benzo[c][1,2]-oxaborol-1-ol; Hydrochloride]
[1]; 100 mg/kg BID PO
  log 10 CFU/lung: 5.06 (0.26) log 10 CFU/lung

## CCOc1ccc(Cl)c2c1B(O)O[C@@H]2CN.Cl (single isomer, unassigned) [L]
[1]; 100 mg/kg QD PO
  log 10 CFU/lung: 3.08 (0.06) log 10 CFU/lung

## CCOc1ccc(Br)c2c1B(O)OC2CN (stereo not shown) [E, 3-(Aminomethyl)-4-bromo-7-ethoxybenzo[c][1,2]oxaborol-1(3H)-ol 2,2,2-trifluoroacetate Salt]
[2]; 100 mg/kg QD PO
  log 10 CFU for lungs: 5.27 (0.12) log 10 CFU
  log 10 CFU for spleens: 4.27 (0.25) log 10 CFU
[1]; 100 mg/kg BID PO
  log 10 CFU/lung: 2.73 (0.05) log 10 CFU/lung

## NNC(=O)c1ccncc1 [INH, Isoniazid, reference compound]
[2]; 25 mg/kg QD PO
  log 10 CFU for lungs: 5.29 (0.13) log 10 CFU
  log 10 CFU for spleens: 4.27 (0.25) log 10 CFU

## CCOc1ccc(F)c2c1B(O)O[C@@H]2CN.Cl (single isomer, unassigned) [N]
[2]; 100 mg/kg BID PO
  log 10 CFU for lungs: 5.51 (0.09) log 10 CFU
  log 10 CFU for spleens: 2.42 (0.48) log 10 CFU
